Measurements taken from ChEMBL document CHEMBL6103559, “Marine actinomycetes-derived angucyclines and angucyclinones with biosynthesis and activity--past 10 years (2014-2023)” (Eur J Med Chem, 2025).
Converted amounts (≈) assume the structure as drawn.

Key:
Staphylococcus aureus [1] = experiment: Antimicrobial activity against methicillin-resistant Staphylococcus aureus assessed as reduction in microbial growth measured for 18 hrs; type: functional
Escherichia coli [2] = experiment: Antibacterial activity against Escherichia coli CMCC(B) 44102 assessed as reduction in microbial growth measured for 18 hrs; type: functional
Bacillus subtilis = experiment: Antibacterial activity against Bacillus subtilis CMCC(B) 63501 assessed as reduction in microbial growth measured for 18 hrs; type: functional
Klebsiella pneumoniae = experiment: Antibacterial activity against Klebsiella pneumoniae CMCC(B) 46117 assessed as reduction in microbial growth measured for 18 hrs; type: functional
Pseudomonas aeruginosa = experiment: Antimicrobial activity against Pseudomonas aeruginosa CMCC(B) 10104 assessed as reduction in microbial growth measured for 18 hrs; type: functional
Staphylococcus aureus [3] = experiment: Antibacterial activity against methicillin-resistant Staphylococcus aureus assessed as reduction in microbial growth by CLSI based broth microdilution method; type: functional
MCF-10A = experiment: Cytotoxicity against human MCF-10A cells assessed as reduction in cell viability incubated for 48 hrs by MTT assay; type: functional, cell-based
MDA-MB-435 = experiment: Cytotoxicity against human MDA-MB-435 cells assessed as reduction in cell viability incubated for 48 hrs by MTT assay; type: functional, cell-based; conditions: MDA-MB-435, 48 h
HepG2 [4] = experiment: Cytotoxicity against human HepG2 cells assessed as reduction in cell viability incubated for 48 hrs by MTT assay; type: functional, cell-based; conditions: HepG2, 48 h
HCT-116 [5] = experiment: Cytotoxicity against human HCT-116 cells assessed as reduction in cell viability incubated for 48 hrs by MTT assay; type: functional, cell-based; conditions: HCT-116, 48 h
MDA-MB-231 [6] = experiment: Cytotoxicity against human MDA-MB-231 cells assessed as reduction in cell viability incubated for 48 hrs by MTT assay; type: functional, cell-based; conditions: MDA-MB-231, 48 h
NCI-H460 = experiment: Cytotoxicity against human NCI-H460 cells assessed as reduction in cell viability incubated for 48 hrs by MTT assay; type: functional, cell-based; conditions: NCI-H460, 48 h
SNU-638 = experiment: Cytotoxicity against human SNU-638 cells by SRB assay; type: functional, cell-based
HCT-116 [7] = experiment: Cytotoxicity against human HCT-116 cells by SRB assay; type: functional, cell-based
A549 [8] = experiment: Cytotoxicity against human A549 cells by SRB assay; type: functional, cell-based
SK-HEP1 = experiment: Cytotoxicity against human SK-HEP1 cells by SRB assay; type: functional, cell-based
MDA-MB-231 [9] = experiment: Cytotoxicity against human MDA-MB-231 cells by SRB assay; type: functional, cell-based
Candida albicans = experiment: Antifungal activity against Candida albicans assessed as reduction in […] growth measured for 12 hrs by broth micro-dilution method; type: functional
Staphylococcus aureus [10] = experiment: Antibacterial activity against Staphylococcus aureus ATCC 43300 assessed as reduction in bacterial growth measured for 12 hrs by broth micro-dilution method; type: functional
Salmonella typhimurium = experiment: Antibacterial activity against multi-drug resistant Salmonella Typhimurium CCARM 8250 assessed as inhibition of bacterial growth incubated for 18 hrs by microplate reader analysis; type: functional, Salmonella enterica subsp. enterica serovar Typhimurium; conditions: Salmonella enterica
Enterococcus faecium = experiment: Antibacterial activity against multi-drug resistant Enterococcus faecium CCARM 5203 assessed as inhibition of bacterial growth incubated for 18 hrs by microplate reader analysis; type: functional
Enterococcus faecalis = experiment: Antibacterial activity against multi-drug resistant Enterococcus faecalis CCARM 5172 assessed as inhibition of bacterial growth incubated for 18 hrs by microplate reader analysis; type: functional
Staphylococcus aureus [11] = experiment: Antibacterial activity against multi-drug resistant Staphylococcus aureus CCARM 3090 assessed as inhibition of bacterial growth incubated for 18 hrs by microplate reader analysis; type: functional
Escherichia coli [12] = experiment: Antibacterial activity against multi-drug resistant Escherichia coli CCARM 1009 assessed as inhibition of bacterial growth incubated for 18 hrs by microplate reader analysis; type: functional
NCI-H69 = experiment: Cytotoxicity against human NCI-H69 cells assessed as reduction in cell growth by MTT assay; type: functional, cell-based
MDA-MB-231 [13] = experiment: Cytotoxicity against human MDA-MB-231 cells assessed as reduction in cell growth by MTT assay; type: functional, cell-based
K562 = experiment: Cytotoxicity against human K562 cells assessed as reduction in cell growth by MTT assay; type: functional, cell-based
H69AR = experiment: Cytotoxicity against human NCI-H69AR cells assessed as reduction in cell growth by MTT assay; type: functional, cell-based
ASPC1 = experiment: Cytotoxicity against human ASPC1 cells assessed as reduction in cell growth by MTT assay; type: functional, cell-based
MDA-MB-231 [14] = experiment: Growth inhibition of human MDA-MB-231 cells after 48 hrs by sulforhodamine B assay; type: functional
NUGC-3 = experiment: Growth inhibition of human NUGC-3 cells after 48 hrs by sulforhodamine B assay; type: functional
NCI-H23 = experiment: Growth inhibition of human NCI-H23 cells after 48 hrs by sulforhodamine B assay; type: functional
PC-3 [15] = experiment: Growth inhibition of human PC-3 cells after 48 hrs by sulforhodamine B assay; type: functional
ACHN = experiment: Growth inhibition of human ACHN cells after 48 hrs by sulforhodamine B assay; type: functional
HCT-15 = experiment: Growth inhibition of human HCT-15 cells after 48 hrs by sulforhodamine B assay; type: functional
PC-3 [16] = experiment: Cytotoxicity against human PC-3 cells; type: functional, cell-based
A2780 = experiment: Cytotoxicity against human A2780 cells assessed as reduction in cell growth by SRB assay; type: functional, cell-based
PC-3 [17] = experiment: Cytotoxicity against human PC-3 cells assessed as reduction in cell growth by SRB assay; type: functional, cell-based
Jurkat = experiment: Cytotoxicity against human Jurkat T cells; type: functional, cell-based
MDA-MB-468 = experiment: Cytotoxicity against human MDA-MB-468 cells; type: functional, cell-based
BT-549 = experiment: Cytotoxicity against human BT-549 cells; type: functional, cell-based
MDA-MB-231 [18] = experiment: Cytotoxicity against human MDA-MB-231 cells; type: functional, cell-based
HepG2 [19] = experiment: Cytotoxicity against human HepG2 cells assessed as reduction in cell growth incubated for 72 hrs by SRB assay; type: functional, cell-based; conditions: HepG2, 72 h
A549 [20] = experiment: Cytotoxicity against human A549 cells assessed as reduction in cell growth incubated for 72 hrs by SRB assay; type: functional, cell-based; conditions: A549, 72 h
MCF7 = experiment: Cytotoxicity against human MCF7 cells assessed as reduction in cell growth incubated for 72 hrs by SRB assay; type: functional, cell-based; conditions: MCF7, 72 h
SF-268 = experiment: Cytotoxicity against human SF-268 cells assessed as reduction in cell growth incubated for 72 hrs by SRB assay; type: functional, cell-based; conditions: SF-268, 72 h

SMILES: CO[C@@H]1C[C@@H](O[C@H]2C=C(C)[C@@H](O)[C@]3(O)[C@@H](OC(=O)O)[C@@H](O)C4=C(C(=O)c5ccc([C@H]6C[C@@H](O[C@H]7C[C@](C)(O)[C@H](O[C@H]8CC[C@H](OC(N)=O)[C@@H](C)O8)[C@@H](C)O7)[C@@H](O)[C@@H](C)O6)c(O)c5C4=O)[C@]23O)O[C@@H](C)[C@H]1O
- MIC (Staphylococcus aureus [1]): 16 µg/mL
- MIC (Escherichia coli [2]): 16 µg/mL
- MIC (Bacillus subtilis): 8 µg/mL
- MIC (Klebsiella pneumoniae): 16 µg/mL
- MIC (Pseudomonas aeruginosa): 16 µg/mL

SMILES: CC(C)c1cc(=O)c2c(cc(O)c3c(=O)c4c(O)cccc4c(=O)c32)c1=O
- MIC (Staphylococcus aureus [3]): 3.12 µg/mL

SMILES: C[C@@H]1O[C@@H](O[C@H]2CC[C@H](O[C@H]3[C@H](O)C[C@H](c4ccc5c(c4O)C(=O)c4ccc6c(c4C5=O)C(=O)C[C@](C)(O)C6)O[C@@H]3C)O[C@H]2C)CCC1=O
- IC50 (MCF-10A): 2400 nM
- IC50 (MDA-MB-435): 2400 nM
- IC50 (HepG2 [4]): 2400 nM
- IC50 (HCT-116 [5]): 2400 nM
- IC50 (MDA-MB-231 [6]): 2400 nM
- IC50 (NCI-H460): 2400 nM

SMILES: CC(C)C1(O)CC(=O)c2c(cc(O)c3c2C(=O)c2cccc(O)c2C3=O)C1 (stereo not given)
- MIC (Staphylococcus aureus [3]): 3.12 µg/mL

SMILES: COc1cccc2c1C(=O)O[C@H]2c1c(O)ccc2c1C(=O)C[C@@H](C)[C@@H]2O
- IC50 (SNU-638): 6700 nM
- IC50 (HCT-116 [7]): 6700 nM
- IC50 (A549 [8]): 6700 nM
- IC50 (SK-HEP1): 6700 nM
- IC50 (MDA-MB-231 [9]): 6700 nM

SMILES: CC(=O)C[C@H](SCc1cc2cc(C)cc(O)c2c2c1C(=O)c1c(O)cccc1C2=O)C(=O)O
- MIC (Candida albicans): 20 µM (≈ 9.29 µg/mL)
- MIC (Staphylococcus aureus [10]): 20 µM (≈ 9.29 µg/mL)

SMILES: C[C@@H]1O[C@@H](O[C@H]2[C@H](O)C[C@H](c3ccc4c(c3O)C(=O)c3ccc(C[C@@](C)(O)CC(=O)O)c(O)c3C4=O)O[C@@H]2C)CC[C@@H]1O
- MIC (Salmonella typhimurium): 3.12 µg/mL (≈ 5.19 µM)
- MIC (Enterococcus faecium): 3.12 µg/mL (≈ 5.19 µM)
- MIC (Enterococcus faecalis): 3.12 µg/mL (≈ 5.19 µM)
- MIC (Staphylococcus aureus [11]): 3.12 µg/mL (≈ 5.19 µM)
- MIC (Escherichia coli [12]): 3.12 µg/mL (≈ 5.19 µM)

SMILES: CC1=CC(=O)[C@]2(O)[C@](O)(CC[C@@]34O[C@@]23C(=O)c2cccc(O)c2C4=O)C1
- IC50 (NCI-H69): 320 nM
- IC50 (MDA-MB-231 [13]): 320 nM
- IC50 (K562): 320 nM
- IC50 (H69AR): 320 nM
- IC50 (ASPC1): 320 nM

SMILES: CSC1=CC2=C(C(=O)c3ccc([C@H]4C[C@@H](O[C@H]5CC[C@H](O[C@H]6C[C@@H](O)[C@H](O)[C@@H](C)O6)[C@H](C)O5)[C@H](O)CO4)c(O)c3C2=O)[C@@]2(O)C(=O)C[C@](C)(O)C[C@@]12O
- GI50 (MDA-MB-231 [14]): 10 nM
- GI50 (NUGC-3): 10 nM
- GI50 (NCI-H23): 10 nM
- GI50 (PC-3 [15]): 10 nM
- GI50 (ACHN): 10 nM
- GI50 (HCT-15): 10 nM

SMILES: CO[C@@H]1C[C@@H](O[C@H]2C=C(C)C[C@]3(O)[C@@H](OC(=O)O)[C@@H](O)C4=C(C(=O)c5ccc([C@H]6C[C@@H](O[C@H]7C[C@](C)(O)[C@H](O[C@H]8CC[C@H](OC(N)=O)[C@@H](C)O8)[C@@H](C)O7)[C@@H](O)[C@@H](C)O6)c(O)c5C4=O)[C@]23O)O[C@@H](C)[C@H]1O
- MIC (Staphylococcus aureus [1]): 16 µg/mL
- MIC (Escherichia coli [2]): 16 µg/mL
- MIC (Bacillus subtilis): 8 µg/mL
- MIC (Klebsiella pneumoniae): 16 µg/mL
- MIC (Pseudomonas aeruginosa): 16 µg/mL

SMILES: C[C@@]12CC(=O)[C@@]3(O)[C@](O)(CC[C@H]4C(=O)c5c(O)cccc5[C@@H](O)[C@@]43O1)C2
- IC50 (PC-3 [16]): 1380 nM

SMILES: CC(=O)N[C@@H](CSc1cc2cc(C)cc(O)c2c2c1C(=O)c1c(O)cccc1C2=O)C(=O)O
- IC50 (A2780): 10200 nM
- MIC (Candida albicans): 20 µM (≈ 9.31 µg/mL)
- IC50 (PC-3 [17]): 19400 nM
- MIC (Staphylococcus aureus [10]): 20 µM (≈ 9.31 µg/mL)

SMILES: Cc1cc(O)c2cc3c(c(O)c2c1)C(=O)c1ccc([C@H]2C[C@@H](O)[C@H](O[C@H]4CC[C@H](OC5=CC(=O)[C@@H](C)OC5)[C@H](C)O4)[C@@H](C)O2)c(O)c1C3=O
- IC50 (Jurkat): 3000 nM

SMILES: CN[C@@H]1C[C@H](c2c(O)c3c(c4c(O)cc(C)cc24)C(=O)c2cccc(O)c2C3=O)O[C@H](C)[C@H]1O
- IC50 (MDA-MB-468): 600 nM
- IC50 (BT-549): 600 nM
- IC50 (MDA-MB-231 [18]): 600 nM

SMILES: Cc1cc(O)c2c(c1)C1c3c-2c(O)c2cccc(O)c2c3OC(=O)C1c1c[nH]c2ccccc12 (stereo not given)
- IC50 (HepG2 [19]): 7000 nM
- IC50 (A549 [20]): 7000 nM
- IC50 (MCF7): 7000 nM
- IC50 (SF-268): 7000 nM

SMILES: CC(C)C1(O)CC(=O)c2c(cc(O)c3c2C(=O)c2cccc(O)c2C3=O)C1=O (stereo not given)
- MIC (Staphylococcus aureus [3]): 3.12 µg/mL
